Experimental findings from PMC11291776, “The development of ^177Lu-DOTA-CC-PSMA following a unified “Click Chemistry” protocol of synthesizing metal nuclide-conjugated radiopharmaceuticals” (EJNMMI Radiopharmacy and Chemistry, 2024) are described below.

The nature of the data set: Pharmacokinetics (blood radioactivity after i.v. injection). Type of data set: in vivo. As to conditions: healthy BALB/c male mice, i.v. 3.7 MBq, blood 2-240 min, DAS 2.0. How it is done: ^177Lu-DOTA-CC-PSMA (3.7 MBq in 100 µL) or ^177Lu-PSMA-617 (3.7 MBq in 100 µL) was administered intravenously via the tail into BALB/c male mice (n = 6), and a venous blood sample (5 µL) was collected from the tail end of each mouse at different time points after injection (2, 4, 6, 10, 15, 30, 60, 120, and 240 min). The radioactivity of the blood samples was measured by γ-counter, and the pharmacokinetics data were obtained using the DAS 2.0 software.

Take `O=C([O-])CN1CCN(CC(=O)[O-])CCN(CC(=O)NCC2CCC(C(=O)N[C@@H](Cc3ccc4ccccc4c3)C(=O)NCCCC[C@H](NC(=O)N[C@@H](CCC(=O)O)C(=O)O)C(=O)O)CC2)CCN(CC(=O)[O-])CC1.[177Lu+3]` (stereo partly shown) [^177Lu-PSMA-617]: the blood clearance half-life turned out to be 17.18 min.
